{
  "source": "paper PMC8000185",
  "about": "(International Journal of Molecular Sciences, 2021)",
  "key": {"[1]": {"details": "previously showed; cited from earlier work"}, "[2]": {"tested_on": "orthotopic xenograft model of pancreatic ductal adenocaricinoma", "details": "pancreatic ductal adenocarcinoma; cited from earlier work"}, "[3]": {"tested_on": "ENaC", "details": "previously showed; cited from earlier work"}, "[4]": {"biological_target": "T1, urokinase from human kidney cells (human uPA) (Homo sapiens, UniProt P00749)", "T1 construct": "low molecular weight active human uPA; purchased Sigma-Aldrich U4010; host or cells: human kidney cells", "assay": "uPA inhibition assay (fluorescence-based, purified enzyme)", "type": "biochemical"}, "[5]": {"biological_target": "T2, NHE1 (Homo sapiens, UniProt P19634)", "T2 construct": "endogenous in cells; host or cells: MDA-MB-231", "T2 sequence (P19634 whole entry)": "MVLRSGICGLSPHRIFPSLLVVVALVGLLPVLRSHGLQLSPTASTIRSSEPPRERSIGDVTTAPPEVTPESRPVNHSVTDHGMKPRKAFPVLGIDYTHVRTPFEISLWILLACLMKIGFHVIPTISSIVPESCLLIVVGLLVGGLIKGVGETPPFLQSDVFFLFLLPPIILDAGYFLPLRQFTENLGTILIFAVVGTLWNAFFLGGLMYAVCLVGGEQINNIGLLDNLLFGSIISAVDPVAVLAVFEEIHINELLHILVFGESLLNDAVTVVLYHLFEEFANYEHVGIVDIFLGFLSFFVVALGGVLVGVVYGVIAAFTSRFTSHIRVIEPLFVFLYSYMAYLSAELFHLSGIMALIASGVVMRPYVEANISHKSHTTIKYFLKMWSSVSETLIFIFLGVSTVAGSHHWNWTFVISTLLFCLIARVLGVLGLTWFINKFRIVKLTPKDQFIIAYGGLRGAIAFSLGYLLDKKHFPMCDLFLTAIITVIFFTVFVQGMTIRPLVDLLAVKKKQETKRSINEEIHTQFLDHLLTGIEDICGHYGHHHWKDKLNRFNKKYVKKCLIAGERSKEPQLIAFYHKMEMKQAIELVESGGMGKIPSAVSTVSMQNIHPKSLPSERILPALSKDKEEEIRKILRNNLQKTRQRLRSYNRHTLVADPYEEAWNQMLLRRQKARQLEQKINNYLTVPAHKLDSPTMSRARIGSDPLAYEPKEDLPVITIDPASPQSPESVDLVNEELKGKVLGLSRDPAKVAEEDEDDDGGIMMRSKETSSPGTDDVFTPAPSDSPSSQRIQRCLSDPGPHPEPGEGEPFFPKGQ", "assay": "Cuvette-based NHE1 inhibition assay", "type": "cell-based", "details": "MDA-MB-231 cells, cuvette assay; read-out: NHE1 Cuvette IC50", "method": "Performed as described in [53]. Briefly, MDA-MB-231 cells were grown to ~80–90% confluence on glass coverslips. Then, 3 µM BCECF were loaded into cells in 400 µL serum-free medium and the fluorescence was measured using a PTI Deltascan spectrofluorometer (Horiba Ltd., Kyoto, Japan). […] A calibration curve of pHi fluorescence was performed for every sample using nigericin [55]. […] IC50 values were determined through fitting of Log-10 transformed data using the “log(inhibitor) versus normalised response–variable slope” non-linear function in GraphPad PRISM v8.0 software package (GraphPad Software, San Diego, USA)."}, "[6]": {"biological_target": "T3, MDA-MB-231 cell-surface uPA (HMW human active uPA bound to uPAR) (Homo sapiens, UniProt P00749)", "T3 construct": "pre-incubated with active high molecular weight (HMW) uPA; purchased Molecular Innovations HTC-UPA; host or cells: added to MDA-MB-231 cells (endogenous uPAR)", "assay": "Cell-surface uPA activity assay", "type": "cell-based", "details": "average ± SEM from four independent assays", "method": "Having identified non-cytotoxic compounds with the desired target selectivity profiles, we then sought to confirm their uPA inhibitory activities in a more physiologically relevant, whole-cell assay. To this end, the fluorogenic biochemical assay was modified to allow measurement of cell-surface uPA activity in MDA-MB-231 cells, which are known to express uPAR [38, 39]. To maximise enzymatic activity, the cells were pre-incubated with active high molecular weight (HMW) uPA to saturate unoccupied uPAR present at the cell surface.\nMDA-MB-231 cells were seeded into Greiner CELLSTAR black 96-well plates (Greiner Bio-one, cat #655079) at density 10,000 cells/well in a volume of 100 µL media and cultured for 48 h. On the day of the experiment, cell culture media were removed via shakeout, followed by washing with 100 µL 1 × Dulbecco’s PBS/1 mM CaCl2/1 mM MgCl2/0.1% protease-free bovine serum albumin/pH 7.4 wash buffer. Cells were then incubated in the presence of 25 nM HMW human active uPA (Molecular Innovations, San Diego, CA, USA, SKU: HTC-UPA) in wash buffer for 30 min at RT. Unbound HMW uPA was removed via washing twice with 100 µL wash buffer. […] Plates were read immediately following the addition of substrate using a POLARstar OMEGA fluorescence plate reader (BMG Labtech GmbH, Offenburg, Germany) according to the parameters in Table S1."}, "[7]": {"assay": "Cell viability (cytotoxicity) assay", "type": "cell-based", "details": "human, MDA-MB-231 cells, 48 h treatment", "method": "On the day of treatment, respective compounds were serially diluted using a semi-logarithmic dilution series from 20 mM stocks in neat DMSO into DMEM-high glucose media (10% v/v FBS) in a separate 96-well plate and under sterile conditions. Thereafter, 10 μL of the diluted compounds at their respective concentrations (n = 4) were added to the cells. […] Vehicle media blanks or drug blanks were also included to correct for inherent colour of the compounds and phenol red-containing media. Following 48 h treatment, 20 μL CellTitre 96® Aqueous One Solution Cell Proliferation Assay (Promega, Madison, USA) was added to each well, plates were incubated for 2 h, and absorbance was measured at 490 nm using a SpectraMax Plus 384-well plate reader (Molecular Devices LLC, San Jose, USA) and Softmax PRO v7.0 software. Blank-corrected data were analysed and graphed using GraphPad PRISM v8.0 software (GraphPad Software, San Diego, CA USA)."}, "[8]": {"biological_target": "T2, NHE1", "assay": "Plate-based NHE1 inhibition assay (BCECF pHi recovery, 96-well plate reader)", "type": "cell-based", "method": "To perform NHE1 screening with increased throughput, we adapted the conventional cuvette-based NHE1 activity assay to a simple new 96-well plate format using MDA-MB-231 cells that were compatible with common laboratory fluorescence plate readers (see Section 4 for details).\nCulture media were removed and replaced with 200 µL 0.2% FBS-containing media with incubation for 3–4 h to stimulate NHE1 activity, followed by incubation for 30 min in the presence of 5 µM 2′,7′-bis(carboxyethyl)-5(6)-carboxyfluorescein-acetoxymethyl ester (BCECF-AM, cat #ab143463, Abcam, Cambridge, United Kingdom). Cells were then washed with 100 µL/well Na^+-free acid-load buffer: 10 mM NH4Cl, 1.8 mM CaCl2, 90 mM N-methyl-D-glucamine (from 1 M stock titrated to pH 7.4 with HCl), 5 mM glucose, 15 mM HEPES, 5 mM KCl, 1 mM MgCl2 (pH 7.5, adjusted with KOH), and incubated at 37 °C for a further 30 min. Acid-load buffer was removed and replaced with Na^+-containing assay buffer: 100 mM NaCl, 1.8 mM CaCl2, 5 mM glucose, 15 mM HEPES, 5 mM KCl, 1 mM MgCl2 containing serial dilution of each compound or DMSO vehicle, and changes in fluorescence were read immediately using a BMG Labtech POLARstar OMEGA (BMG Labtech GmbH, Offenburg, Germany) plate reader according to the parameters in Table S1. Compounds were tested at n = 3 technical replicates per concentration per plate. BCECF-AM-free cells were treated with matched concentrations of each compound to correct for intrinsic fluorescence. DMSO was present in all wells at a final concentration of 1% v/v. Inhibition of NHE1-mediated pHi recovery was determined by ratiometric calculation of the change in blank-corrected pH-sensitive fluorescence divided by the isobestic fluorescence for each well over time. […] (0% activity) controls present on each plate. IC50 values were determined through fitting of Log-10 transformed data using the “log(inhibitor) versus normalised response–variable slope” non-linear function in GraphPad PRISM v8.0 software package (GraphPad Software, San Diego, CA, USA)."}, "[9]": {"details": "1 μM, MDA-MB-231 cells, plate reader"}},
  "data": [
    {"smiles": "COc1ncc(-c2nc(C(=O)NC(=N)N)c(N)nc2N2CCCCCC2)cn1", "note": "[compound 26]", "values": [
      {"measurement": "K+-sparing or diuretic effects in vivo", "setting": "[1]", "value": "no K^+-sparing or diuretic effects"},
      {"measurement": "anti-metastatic properties", "setting": "[2]", "value": "anti-metastatic properties"},
      {"measurement": "ENaC activity in vitro", "setting": "[3]", "value": "no ENaC activity"},
      {"measurement": "IC50", "setting": "[4]; purified enzyme, Z-Gly-Gly-Arg-AMC substrate, number in parentheses after value, read-out: uPA IC50", "value": 86, "unit": "nM"},
      {"measurement": "uPA selectivity ratio", "setting": "[4]; uPA over NHE1", "value": 143},
      {"measurement": "IC50", "setting": "[5]", "value": 21.5, "unit": "µM"},
      {"measurement": "IC50", "setting": "[6]", "value": "149 ± 14", "unit": "nM"},
      {"measurement": "IC50 at 48 h", "setting": "[7]", "value": "> 100", "unit": "µM"},
      {"measurement": "NHE1 Inhibition (%) 1 μM", "setting": "[8]; [9]", "value": "no activity"},
      {"measurement": "inhibition at 1 µM", "setting": "[8]; [9]", "value": 0, "unit": "%"},
      {"measurement": "inhibition at 10 µM", "setting": "[8]; 10 μM, MDA-MB-231 cells, plate reader", "value": 72, "unit": "%"},
      {"measurement": "drop in NHE1 potency relative to unsubstituted 24", "setting": "[8]; IC50 measurements", "value": "~ 46 fold"},
      {"measurement": "IC50", "setting": "[8]; plate-reader value as printed in nM in text, read-out: NHE1 IC50", "value": 12300, "unit": "nM"}
    ]}
  ]
}
